# Laboratory results: US4970210A, “Triazinone lipoxygenase compounds” (Abbott Laboratories, priority 1988, dated 1990)
# Molecular target: T1, 5-lipoxygenase (Rattus norvegicus, UniProt P12527)
# T1 construct: 20,000×g supernatant from homogenized RBL-1 cells; endogenous in cells; host or cells: RBL-1 cells (20,000×g supernatant of homogenate)
# T1 sequence (P12527 1-673): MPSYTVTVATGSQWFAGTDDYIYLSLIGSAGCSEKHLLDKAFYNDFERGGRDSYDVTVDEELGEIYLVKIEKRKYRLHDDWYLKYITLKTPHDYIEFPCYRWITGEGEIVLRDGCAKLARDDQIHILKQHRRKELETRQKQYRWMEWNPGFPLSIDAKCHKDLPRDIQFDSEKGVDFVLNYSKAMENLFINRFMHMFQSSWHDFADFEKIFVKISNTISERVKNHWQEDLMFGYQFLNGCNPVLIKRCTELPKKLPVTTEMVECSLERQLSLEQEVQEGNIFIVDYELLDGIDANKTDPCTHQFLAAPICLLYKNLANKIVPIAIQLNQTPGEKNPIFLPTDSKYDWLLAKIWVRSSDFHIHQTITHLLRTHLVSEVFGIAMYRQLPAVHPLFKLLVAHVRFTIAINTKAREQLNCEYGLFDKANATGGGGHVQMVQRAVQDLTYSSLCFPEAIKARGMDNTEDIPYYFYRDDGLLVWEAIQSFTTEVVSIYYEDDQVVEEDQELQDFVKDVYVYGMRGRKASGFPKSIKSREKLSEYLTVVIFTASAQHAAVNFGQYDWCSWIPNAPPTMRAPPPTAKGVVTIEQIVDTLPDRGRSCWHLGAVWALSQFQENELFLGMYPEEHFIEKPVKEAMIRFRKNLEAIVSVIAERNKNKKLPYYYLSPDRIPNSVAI
# Assay: Inhibition of 5-lipoxygenase (20,000×g supernatant from homogenized RBL-1 cells)
# Format: biochemical
# Settings: in vitro, read-out: IC50 (concentration of compound producing 50% enzyme inhibition)
# Description: Inhibition of 5-lipoxygenase activity was determined using the 20,000×g supernatant from homogenized RBL-1 cells in a similiar manner as that described by Dyer and coworkers (Dyer, R. D.; Haviv., F.; Hanel, A. M.; Bornemeier, D. A.; Carter, G. W. Fed. Proc.,Fed.Am.Soc. Exp. Biol. 1984, 43,1462a). IC50 values (concentration of compound producing 50% enzyme inhibition) were calculated by linear regression analysis of percentage inhibition versus log inhibitor concentration plots.
row,IC50,Compound
1,3 µM,"Cc1cc(C)cc(N2CCCC(=O)N2)c1 [Example 24, 1-(3',5'-dimethylphenyl)-2H-tetrahydropyridazin-3-one]"
2,13 µM,"CCc1cccc(N2CCNC(=O)N2)c1 [Example 74, 1-(3'-ethylphenyl)-2 H,4 H-tetrahydro-1,2,4-triazin-3-one]"
3,2 µM,"CCCCC1CN(c2ccccc2)NC(=O)N1 (racemic) [Example 83, D,L-5-n-butyl-1-phenyl-2H 4H-tetrahydro-1,2,4-triazin-3-one]"
4,12 µM,"Cc1cc(C)cc(N2CCNC(=O)N2)c1 [Example 80, 1-(3',5'-dimethylphenyl)-2 H,4 H-tetrahydro-1,2,4-triazin-3-one]"
5,17 µM,"O=C1NCCN(c2cccc(C(F)(F)F)c2)N1 [Example 76, 1-(3'-trifluoromethylphenyl)-2 H,4 H-tetrahydro-1,2,4-triazin-3-one]"
6,8 µM,"O=C1NN(c2ccccc2)CCN1Cc1ccccc1 [Example 99, 4-Benzyl-1-phenyl-2H,4H-tetrahydro-1,2,4-triazin-3-one]"
7,7 µM,"CC(C)C1CN(c2ccccc2)NC(=O)N1 (racemic) [Example 82, D,L-5-i-propyl-1-phenyl-2H,4H-tetrahydro-1,2,4-triazin-3-one]"
8,1 µM,"O=C1CCCN(c2cc(Cl)cc(Cl)c2)N1 [Example 26, 1-(3',5'-dichlorophenyl)-2H-tetrahydropyridazin-3-one]"
9,26 µM,"O=C1NCCN(c2ccccn2)N1 [Example 90, 1-(2-pyridyl)-2H,4H-tetrahydro-1,2,4-triazin-3-one]"
10,0.5 µM,"CCCCC1CC(=O)NN(c2ccccc2)C1 (stereo not drawn) [Example 40, 1-phenyl-5-butyl-2H-tetrahydropyridazin-3-one]"
11,1 µM,"CC(C)C(=O)N1CCN(c2ccccc2)NC1=O [Example 109, 4-Isobutyryl-1-phenyl-2H,4H-tetrahydro-1,2,4-triazin-3-one]"
12,14 µM,"CSc1cccc(N2CCNC(=O)N2)c1 [Example 75, 1-(3'-methylthiophenyl)-2 H,4 H-tetrahydro-1,2,4-triazin-3-one]"
13,3 µM,"CC1CN(c2cccc(Cl)c2)NC(=O)N1 (racemic) [Example 85, D,L-5-methyl-1-(3-chlorophenyl)-2H,4H-tetrahydro-1,2,4-triazin-3-one]"
14,19 µM,"O=C1NCCN(c2cccc(F)c2)N1 [Example 88, 1-(3-fluorophenyl)-2H,4H-tetrahydro-1,2,4-triazin-3-one]"
15,2 µM,"O=C1CCCN(c2ccc(Oc3ccccc3)cc2)N1 [Example 6, 1-(4'-phenoxyphenyl)-2H-tetrahydropyridazin-3-one]"
16,1 µM,"Cc1cccc(N2CCCC(=S)N2)c1 [Example 106, 1-(3'-methylphenyl)-2H-tetrahydro-pyridazin-3-thione]"
17,17 µM,"S=C1NCCN(c2ccccc2)N1 [Example 102, 1-Phenyl-2H,4H-tetrahydro-1,2,4-triazin-3-thione]"
18,2.5 µM,"O=C1CCCN(c2cccc(Cl)c2)N1 [Example 46, 1-(3'-chlorophenyl)-2H-tetrahydropyridazin-3-one]"
19,1 µM,"O=C1NCCN(c2cccc(OCc3ccccc3)c2)N1 [Example 79, 1-(3'-benzyloxyphenyl)-2 H,4 H-tetrahydro-1,2,4-triazin-3-one]"

row,IC50,Compound
1,5 µM,"O=C1NCCN(c2cccc(Br)c2)N1 [Example 73, 1-(3'-bromophenyl)-2 H,4 H-tetrahydro-1,2,4-triazin-3-one]"
2,6 µM,"COc1cccc(N2CCCC(=O)N2)c1 [Example 3, 1-(3'-methoxyphenyl)-2H-tetrahydropyridazin-3-one]"
3,3 µM,"CC(=O)N1CCN(c2ccccc2)NC1=O [Example 107, 4-Acetyl-1-phenyl-2H,4H-tetrahydro-1,2,4-triazin-3-one]"
4,3 µM,"CCc1cccc(N2CCCC(=O)N2)c1 [Example 10, 1-(3'-ethylphenyl)-2H-tetrahydropyridazin-3-one]"
5,1 µM,"CC(=O)N1CCN(c2cccc(Cl)c2)NC1=O [Example 111, 4-Acetyl-1-(3-chlorophenyl)-2H,4H-tetrahydro-1,2,4-triazin-3-one]"
6,5 µM,"O=C1CCCN(c2cccc(C(F)(F)F)c2)N1 [Example 8, 1-(3'-trifluoromethylphenyl)-2H-tetrahydropyridazin-3-one]"
7,0.6 µM,"CCCCC1CCN(c2ccccc2)NC1=O (stereo not drawn) [Example 38, 1-phenyl-4-butyl-2H-tetrahydropyridazin-3-one]"
8,21 µM,"O=C1NCCN(c2ccccc2)N1 [Example 68, 1-(phenyl)-2 H,4 H-tetrahydro-1,2,4-triazin-3-one]"
9,10 µM,"O=C1CCCN(c2ccccc2F)N1 [Example 51, 1-(2'-fluorophenyl)-2H-tetrahydropyridazin-3-one]"
10,5 µM,"CCOC(=O)c1cccc(N2CCCC(=O)N2)c1 [Example 16, 1-(3'-ethoxycarbonylphenyl)-2H-tetrahydropyridazin-3-one]"
11,6 µM,"O=C1NCCN(c2cccc(Cl)c2)N1 [Example 78, 1-(3'-chlorophenyl)-2 H,4 H, tetrahydro-1,2,4-triazin-3-one]"
12,5 µM,"S=C1NCCN(c2cccc(Cl)c2)N1 [Example 103, 1-(3-Chlorophenyl)-2H,4H-tetrahydro-1,2,4-triazin-3-thione]"
13,15 µM,"Cc1cccc(N2CCNC(=O)N2)c1 [Example 70, 1-(3'-methylphenyl)-2 H,4 H-tetrahydro-1,2,4-triazin-3-one]"
14,7 µM,"CC1(C)CN(c2ccccc2)NC(=O)N1 [Example 87, 5,5-dimethyl-1-phenyl-2H,4H-tetrahydro-1,2,4-triazin-3-one]"
15,11 µM,"N#Cc1cccc(N2CCCC(=O)N2)c1 [Example 1, 1-(3'-cyanophenyl)-2H-tetrahydropyridazin-3-one]"
16,7 µM,"CCC1CN(c2ccccc2)NC(=O)N1 (racemic) [Example 86, D,L-5-ethyl-1-phenyl-2H,4H-tetrahydro-1,2,4-triazin-3-one]"
17,71 µM,"O=C1CCCN(c2ccccc2)N1COCc1ccccc1 [Example 113, 1-phenyl-2-benzyloxymethyl-2 H-tetrahydropyridazin-3-one]"
18,6 µM,"CCCCCCCCc1ccc(N2CCCC(=O)N2)cc1 [Example 15, 1-(4'-octylphenyl)-2H-tetrahydropyridazin-3-one]"

# Test system: leukotriene biosynthesis
# Assay: In vivo inhibition of leukotriene biosynthesis after oral administration, rat peritoneal anaphylaxis model
# Settings: 0.25 h, 200 micro mol/kg oral dose, one hour prior to antigen challenge, peritoneal fluid 15 minutes after challenge, vs mean of control group
# Description: Inhibition of the biosynthesis of leukotrienes in vivo after oral administration of compound was determined using a rat peritoneal anaphylaxis model in a similiar manner as that described by Young and coworkers (Young, P. R.; Dyer, R. D.; Carter, G. W. Fed. Proc., Fed. Am Soc.Exp. Biol. 1985, 44 1185). In this model rats were injected intraperitoneally (ip) with rabbit antibody to bovine serum albumin (BSA) and three hours later injected ip with BSA to induce an antigen-antibody response. Rats were sacrificed 15 minutes after this challenge and the peritoneal fluids were collected and analyzed for leukotriene levels. Test compounds were administered by gauge one hour prior to the antigen challenge. Percent inhibition values were determined by comparing the treatment group to the mean of the control group.
row,Compound,inhibition in vivo at 200 µmol/kg
1,"CCc1cccc(N2CCNC(=O)N2)c1 [Example 74, 1-(3'-ethylphenyl)-2 H,4 H-tetrahydro-1,2,4-triazin-3-one]",58%
2,"CSc1cccc(N2CCNC(=O)N2)c1 [Example 75, 1-(3'-methylthiophenyl)-2 H,4 H-tetrahydro-1,2,4-triazin-3-one]",73%
3,"CC1CN(c2ccccc2)NC(=O)N1 (racemic) [Example 81, D,L-5-methyl-1-phenyl-2H,4H-tetrahydro-1,2,4-triazin-3-one]",84%
4,"O=C1NCCN(c2cccc(Br)c2)N1 [Example 73, 1-(3'-bromophenyl)-2 H,4 H-tetrahydro-1,2,4-triazin-3-one]",46%
5,"CC(=O)N1CCN(c2cccc(Cl)c2)NC1=O [Example 111, 4-Acetyl-1-(3-chlorophenyl)-2H,4H-tetrahydro-1,2,4-triazin-3-one]",74%
6,"O=C1NCCN(c2ccccc2)N1 [Example 68, 1-(phenyl)-2 H,4 H-tetrahydro-1,2,4-triazin-3-one]",85%
7,"O=C1NCCN(c2cccc(Cl)c2)N1 [Example 78, 1-(3'-chlorophenyl)-2 H,4 H, tetrahydro-1,2,4-triazin-3-one]",80%
8,"Cc1cccc(N2CCNC(=O)N2)c1 [Example 70, 1-(3'-methylphenyl)-2 H,4 H-tetrahydro-1,2,4-triazin-3-one]",66%
